# The source made the active and inactive calls. The rule behind the calls is not given here.
# Target: Heat shock protein HSP 90-alpha (Homo sapiens) (UniProt P07900)
# Assay: growth inhibition of yeast carrying human Hsp90, dose response, counter-screen, plate reader, cherry-picked samples (AID 540270)
# Conditions: yeast expressing human Hsp90, growth
row,Compound,AC50 [µM]
1,C[CH2][Hg][S]c1ccccc1C(=O)O,2.31
2,O=C1CC(c2ccccc2)CC(O)=C1C=Nc1cccc(Cl)c1 (centres undefined),4.28

# Same assay, conditions: yeast expressing human Hsp90, growth, at 12 µM (top of the series)
row,Compound,"activity, negative = inhibition"
1,CCN(CC)c1ccc(/C=C2/SC(=O)N(C(C)C)C2=O)o1,inactive
2,O=C(/C(=C\c1ccccc1)c1nc2ccccc2[nH]1)c1ccc(Cl)cc1,inactive

# Same assay, conditions: yeast expressing human Hsp90, growth, at 26 µM (top of the series)
row,Compound,"activity, negative = inhibition"
1,NC(=O)/C=C\C(=O)Nc1cccc(C(F)(F)F)c1,inactive
2,Cc1ccc(O)c(NC(=S)NC(=O)c2ccc(-c3ccc(Cl)cc3)o2)c1,inactive
3,Cc1csc(CNc2ncnc3ccc(-c4cccc(Cl)c4)cc23)c1,inactive
4,O=C(O)c1cccc(N/N=C/c2cc(Br)cc(Br)c2O)c1,inactive
5,Cc1ccc(/C=C2/NC(=O)N(Cc3ccc(Br)cc3)C2=O)o1,inactive
6,O=C1C=CC(=O)N1Cc1ccccc1,inactive
7,Cc1cc(Br)c2c(c1)/C(=C/C(=O)c1cccs1)C(=O)N2,inactive
8,O=C(CSCC(=O)N1CCCCC1)Nc1nc(-c2ccc(Cl)s2)cs1,inactive
9,CCOc1cc(S(=O)(=O)NC2CCCCCC2)ccc1F,inactive
10,O=C(COc1ccc(Cl)cc1)NC1=NN(c2ccccc2)C(=O)C1,inactive
11,COc1ccc(C(=O)Nc2cc(C(=O)c3ccccc3)c(C)oc2=O)cc1,inactive
12,CCOc1ccc(S(=O)(=O)NCc2ccccn2)c(C)c1C,inactive
13,CCOC(=O)c1cc([N+](=O)[O-])cc([N+](=O)[O-])c1Sc1ncnc2nc[nH]c12,inactive
14,COc1cc(N=c2ssnc2Cl)c(OC)cc1Cl,inactive
15,O=C1S/C(=C/c2ccc(N3CCOCC3)o2)C(=O)N1Cc1c(F)cccc1Cl,inactive
16,O=C(O)/C=C/c1cn(-c2ccccc2)nc1-c1cc2ccccc2o1,inactive
17,CC1(C)N=C(SCC(=O)Nc2ccc(Cl)cc2Cl)C(c2ccccc2)=N1,inactive
18,O=C1/C(=C\c2ccc(Cl)cc2)CCC1CNc1ccc(Cl)cc1 (centres undefined),inactive
19,Cc1ccc(N=c2ssnc2Cl)cc1,inactive
20,O=C(/C(=C/c1ccc(Cl)cc1)c1nc2ccccc2[nH]1)c1ccccc1,inactive
21,CC(=NNC(=S)N1CC2CCC(CC2)C1)c1nccs1,inactive
22,Cc1ccc(-c2cc(-c3ccc(F)cc3)c(C#N)c(N)n2)o1,inactive
23,Cc1ccc(N2C(=O)C3C4C=CC(CNC(=S)Nc5ccc(F)cc5)(O4)C3C2=O)cc1 (centres undefined),inactive
24,COc1ccc(NC(=S)Nc2ccc3snnc3c2)cc1,inactive
25,Cc1ccc(N2C(=O)C3C4C=CC(CNC(=S)Nc5cccc(Cl)c5)(O4)C3C2=O)cc1 (centres undefined),inactive
26,CC(C)OC(=O)c1ccc(NCc2cc(O)ccc2O)cc1Cl,inactive
27,O=C(/C(=C/c1cccc(Cl)c1)c1nc2ccccc2[nH]1)c1ccccc1,inactive
28,Cc1ccc(OCc2n[nH]c(=S)n2C2CCCCC2)cc1,inactive
29,CN(C)c1ccc(-c2cc(O)c3ncccc3c2)cc1,inactive
30,CCCC1CCC(c2ccc(/C(N)=N/O)cc2)CC1 (centres undefined),inactive
